Literature values, collected in patent publication US20160184332A1, “MEDICAMENT COMPRISING A PHARMACEUTICAL COMBINATION OF DRUGS” (priority 2013, published 2016).

Assays:
[1] = test system: cytochrome P450 (CYP) isozymes; settings: in vitro
CYP3A4 = CYP3A4 (Homo sapiens, UniProt P08684); settings: minor route; primary route of metabolism is glucuronidation
[2] = test system: human CYP 450 isoenzymes: 1A2, 2A6, 2B6, 2C9, 2C19, 2D6 and 3A4
[3] = test system: uridine-5-5′-diphosphoglucuronyl transferase; settings: enzyme responsible for glucuronidation

Sequence of CYP3A4 (P08684 whole entry): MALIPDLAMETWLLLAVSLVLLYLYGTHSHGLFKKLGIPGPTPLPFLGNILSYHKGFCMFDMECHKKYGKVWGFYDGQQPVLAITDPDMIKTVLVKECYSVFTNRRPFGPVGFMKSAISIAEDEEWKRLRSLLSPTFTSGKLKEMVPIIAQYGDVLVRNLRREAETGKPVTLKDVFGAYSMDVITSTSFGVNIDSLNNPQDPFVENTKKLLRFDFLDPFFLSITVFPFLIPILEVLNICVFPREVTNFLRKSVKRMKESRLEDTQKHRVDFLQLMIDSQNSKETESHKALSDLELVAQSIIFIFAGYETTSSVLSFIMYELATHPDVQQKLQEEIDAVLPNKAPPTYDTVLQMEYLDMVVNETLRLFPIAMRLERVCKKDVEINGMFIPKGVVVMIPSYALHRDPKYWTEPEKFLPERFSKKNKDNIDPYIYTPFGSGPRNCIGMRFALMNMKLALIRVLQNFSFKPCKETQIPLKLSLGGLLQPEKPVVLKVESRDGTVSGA

induction or inhibition of cytochrome P450 (CYP) isozymes [1] | extent to which it is a substrate of CYP3A4 (CYP3A4) | inhibition of in vitro drug metabolism mediated by human CYP 450 isoenzymes [2] | inhibition of uridine-5-5′-diphosphoglucuronyl transferase [3] | Compound
demonstrates induction or inhibition | about 15% | – | – | C[C@@H]1CCO[C@H]2Cn3cc(C(=O)NCc4ccc(F)cc4F)c(=O)c(O)c3C(=O)N12 [dolutegravir, (4R,12aS)—N-(2,4-difluorobenzyl)-7-hydroxy-4-methyl-6,8-dioxo-3,4,6,8,12,12a-hexa-hydro-2H-pyrido[1′,2′:4,5]pyrazino[2,1-b][1,3]oxazine-9-carboxamide]
– | – | does not inhibit | does not inhibit | Nc1nc(=O)n([C@@H]2CS[C@H](CO)O2)cc1F [emtricitabine, 5-fluoro-1-(2R,5S)-[2-(hydroxymethyl)-1,3 oxathiolan-5-yl]cytosine]
